Structures are written as SMILES.

Experiment [1] has as its target dipeptidyl peptidase-IV enzyme (DPP-4) (Homo sapiens (Human), UniProt P27487). The experiment in a line: continuous fluorometric assay with substrate Gly-Pro-AMC (DPP-4 inhibition). The experiment is classed as biochemical. To be noted: soluble human DPP-4, 50 μM Gly-Pro-AMC, pH 7.5, room temperature.
Description: Inhibition constants are determined as follows. A continuous fluorometric assay is employed with the substrate Gly-Pro-AMC, which is cleaved by DPP-4 to release the fluorescent AMC leaving group. […] A typical reaction contains approximately 50 pM enzyme, 50 μM Gly-Pro-AMC, and buffer (100 mM HEPES, pH 7.5, 0.1 mg/ml BSA) in a total reaction volume of 100 μL. Liberation of AMC is monitored continuously in a 96-well plate fluorometer using an excitation wavelength of 360 nm and an emission wavelength of 460 nm. Under these conditions, approximately 0.8 μM AMC is produced in 30 minutes at 25 degrees C. The enzyme used in these studies was soluble (transmembrane domain and cytoplasmic extension excluded) human protein produced in a baculovirus expression system (Bac-To-Bac, Gibco BRL). […] To measure the dissociation constants for compounds, solutions of inhibitor in DMSO were added to reactions containing enzyme and substrate (final DMSO concentration is 1%). All experiments were conducted at room temperature using the standard reaction conditions described above. To determine the dissociation constants (Ki), reaction rates were fit by non-linear regression to the Michaelis-Menton equation for competitive inhibition.
Experiment [2] deals with cardiac allograft. The settings on record: rats; survival doubled from day 7; cited from earlier work.
In experiment [3] the test system is hematopoiesis. To be noted: mouse, cyclophosphamide-induced neutropenia; cited from earlier work.
Experiment [4] deals with DPP-4 (Homo sapiens (Human), UniProt P27487). The settings on record: cited from earlier work.
Chain of DPP-4 (P27487 39-766, species assumed): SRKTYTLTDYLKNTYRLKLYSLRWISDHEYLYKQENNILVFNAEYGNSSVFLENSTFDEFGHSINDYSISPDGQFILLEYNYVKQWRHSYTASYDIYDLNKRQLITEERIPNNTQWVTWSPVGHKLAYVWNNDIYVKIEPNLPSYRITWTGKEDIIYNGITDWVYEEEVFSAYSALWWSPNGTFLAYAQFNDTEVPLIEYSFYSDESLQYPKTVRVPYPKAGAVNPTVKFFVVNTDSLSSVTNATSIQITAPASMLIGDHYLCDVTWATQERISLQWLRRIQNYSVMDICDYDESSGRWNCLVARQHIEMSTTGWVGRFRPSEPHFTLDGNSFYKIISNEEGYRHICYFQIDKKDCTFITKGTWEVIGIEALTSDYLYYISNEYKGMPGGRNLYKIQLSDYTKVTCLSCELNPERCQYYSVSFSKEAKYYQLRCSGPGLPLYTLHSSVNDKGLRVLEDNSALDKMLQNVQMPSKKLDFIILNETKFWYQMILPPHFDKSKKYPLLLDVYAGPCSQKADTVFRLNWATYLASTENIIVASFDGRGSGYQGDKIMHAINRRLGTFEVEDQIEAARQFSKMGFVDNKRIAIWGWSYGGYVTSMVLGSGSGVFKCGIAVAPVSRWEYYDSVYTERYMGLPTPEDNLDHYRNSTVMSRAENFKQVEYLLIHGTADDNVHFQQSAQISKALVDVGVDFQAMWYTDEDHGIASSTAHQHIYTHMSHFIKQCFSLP

Chain of dipeptidyl peptidase-IV enzyme (DPP-4) (P27487 29-766): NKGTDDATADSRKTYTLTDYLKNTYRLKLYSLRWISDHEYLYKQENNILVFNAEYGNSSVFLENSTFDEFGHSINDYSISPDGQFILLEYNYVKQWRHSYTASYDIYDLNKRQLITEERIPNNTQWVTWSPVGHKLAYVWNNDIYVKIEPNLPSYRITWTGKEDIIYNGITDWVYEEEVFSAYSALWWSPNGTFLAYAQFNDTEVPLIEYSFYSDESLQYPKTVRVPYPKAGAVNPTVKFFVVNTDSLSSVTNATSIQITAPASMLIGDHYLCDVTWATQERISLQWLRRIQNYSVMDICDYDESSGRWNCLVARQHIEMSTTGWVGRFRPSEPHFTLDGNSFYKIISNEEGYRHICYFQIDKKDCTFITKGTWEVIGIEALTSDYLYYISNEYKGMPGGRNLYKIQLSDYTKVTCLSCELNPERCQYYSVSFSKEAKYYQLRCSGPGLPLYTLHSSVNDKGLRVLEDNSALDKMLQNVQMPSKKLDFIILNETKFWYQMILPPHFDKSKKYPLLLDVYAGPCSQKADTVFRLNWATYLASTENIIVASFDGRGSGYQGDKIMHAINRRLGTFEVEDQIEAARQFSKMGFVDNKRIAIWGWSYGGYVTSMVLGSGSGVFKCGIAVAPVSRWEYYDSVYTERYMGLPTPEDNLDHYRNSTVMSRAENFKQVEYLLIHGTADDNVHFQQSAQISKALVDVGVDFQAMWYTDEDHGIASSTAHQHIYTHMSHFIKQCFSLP

As usually defined, the IC50 is the concentration needed to halve the response being measured. Lower therefore signals inhibition by little substance. Compound `Cc1ccc(S(=O)(=O)N=S(C)(=O)n2cc3c(n2)CN([C@H]2CO[C@H](c4cc(F)ccc4F)[C@@H](N)C2)C3)cc1` (stereo partly drawn) [Example 1] had an IC50 in experiment [1] of 0.0185 µM.

In turn, `C[C@]1(N2Cc3cn(S(C)(=O)=O)nc3C2)CO[C@H](c2cc(F)ccc2F)[C@@H](N)C1` [Example 3] returned an IC50 in experiment [1] of 0.037 µM. With `C[C@]1(N2Cc3cn(S(=O)(=O)NC(=O)OCc4ccccc4)nc3C2)CO[C@H](c2cc(F)ccc2F)[C@@H](N)C1` [Example 4], half-maximal inhibition in experiment [1] (IC50) required 0.0088 µM.

With `CC(C)N1CCC(c2ccccc2)(c2ccccc2)CC1` [Prodipine, Pro-Pro-diphenyl-phosphonate], in experiment [2], the cardiac allograft survival was 14 day. As to `CC(C)[C@H](N)C(=O)N1CCC[C@H]1B(O)O` [Val-Boro-Pro], the hematopoiesis result in experiment [3] is “stimulated hematopoiesis”. Take `CC[C@H](C)[C@H](N)C(=O)N1CCC[C@H]1C(=O)N[C@H](C(=O)O)[C@@H](C)CC` [diprotin A]: the “degradation of GRF to GRF[3-44] in plasma” value in experiment [4] is reported as “prevented”.
